This note sets out measurements from patent US8637493B2, “Methods for treating glioblastoma” (University of Massachusetts, priority 2009, dated 2014).

One assay relates to U87NS. Briefly: Neurosphere formation / recovery / secondary neurosphere assay, U87NS. Type of assay: cell-based, human. The settings on record: LY alone at various concentrations, counted after 7 days. The method, then: (§1) The effect of chemotherapy on neurosphere formation was assayed in glioma neurosphere cultures. Cultures are treated with a single dose of the agent, e.g., TMZ and multiple doses of a GSI, e.g., DAPT to inhibit the Notch pathway. After the Treatment phase, the number of initial spheres (counted about 7 days after TMZ treatment) represents the number of proliferating CSC/progenitors (FIG. 1 for schematic). Recovery (counted 14 days after TMZ treatment) includes enlargement of the initial spheres and new spheres formed when CSC/progenitor cells quiescent as a result of chemotherapy resume cell proliferation. […] The cells used included U87NS, a neurosphere culture converted to neurosphere growth in defined medium from U87MG (an old Swedish line that is grown in conventional serum conditions); GS7-2, GS8-26 and GS6-22 primary neurosphere cultures that were obtained from grade IV GBM patient tumor samples and AS5-15, which was obtained from a grade III anaplastic astrocytoma.
(§2) To determine the effects of TMZ plus DAPT neurospheres, cells were plated as previously described (Mihaliak et al., Cancer Letts. 296, 168-177 (2010)). Immediately after plating, cells were treated with DMSO, DAPT-only, LY411,575 (LY)-only TMZ-only, TMZ+DAPT or TMZ+LY. The initial neurospheres were counted on day 7 for the converted cell lines and on day 10 for the slower growing primary lines. Neurosphere recovery was measured on day 14 or 20. The neurospheres were dissociated, re-plated and secondary neurosphere formation was measured on day 21 or 30.
(§3) Neurosphere cultures were dissociated to single cell suspensions by pH dissociation followed by filtration through 40 μm screens. For the neurosphere assay, 3,000 cells/ml of defined medium were seeded in 6-well plates. Immediately after plating, cells were treated with DMSO (Research Organics, Cleveland, Ohio) carrier control, TMZ-only, DAPT-only, or TMZ+DAPT. Additional DAPT was added on days 2 and 4. Neurospheres consisting of 10 or more cells were counted under a light microscope on day 7 for the converted cell lines. Primary lines have a slightly longer doubling time and were counted on day 10. After counting the neurospheres from the initial treatment, 2 ml of fresh defined medium was added to each well. DAPT was also added once more to the DAPT-only and TMZ+DAPT samples, and the cells were incubated for an additional 7 or 10 days. Neurospheres from the recovery period were counted on day 14 or day 20. To analyze secondary neurosphere formation, cells were collected, pelleted and dissociated to a single cell suspension by the pH method. Cells from each well were re-seeded into 6-well plates with 2 ml of defined medium. The number of secondary neurospheres formed by converted cell lines and primary cultures were counted on day 21 or day 30, respectively. All recovery assays were repeated with a minimum of 6 replicate sets of time points.
For the samples labeled “PRE-treat”, a single dose of DAPT was administered when the cells were plated, and then TMZ was added to the medium 24 hours later. For the “CO-treat” samples, single doses of TMZ and DART were added simultaneously when the cells were plated. Finally, samples labeled “POST-treat” were treated with TMZ, and then DAPT was added 24 hours later.

A further assay has as its system U373NS. Briefly: Neurosphere formation / recovery / secondary neurosphere assay, U373NS. Type of assay: cell-based, human. The method, then: as §1, §2, §3

In the case of `C[C@H](NC(=O)[C@@H](O)c1cc(F)cc(F)c1)C(=O)N[C@@H]1C(=O)N(C)c2ccccc2-c2ccccc21` [LY, N-2((2S)-2-(3,5-difluorophenyl)-2-hydroxyethanoyl)-N1-((7S)-5-methyl-6-oxo-6,7-dihydro-5H-dibenzo[b,d]azepin-7-yl)-L-alaninamide], the neurosphere formation result is listed as “dose-dependent decrease” in the assay with U87NS and “dose-dependent decrease” with U373NS (LY alone at various concentrations, counted after 7 days). Besides, in the assay with U373NS (LY-only, secondary formation still robust), the “secondary neurosphere formation compared to DMSO treated samples” value is on record as “decreased”.
